# From patent publication US9221834B2 (Merck Sharp & Dohme Corp., priority 2010, dated 2015)
# Target: T1, recombinant CETP (rCETP) (Homo sapiens, UniProt P11597)
# T1 sequence (P11597 18-493): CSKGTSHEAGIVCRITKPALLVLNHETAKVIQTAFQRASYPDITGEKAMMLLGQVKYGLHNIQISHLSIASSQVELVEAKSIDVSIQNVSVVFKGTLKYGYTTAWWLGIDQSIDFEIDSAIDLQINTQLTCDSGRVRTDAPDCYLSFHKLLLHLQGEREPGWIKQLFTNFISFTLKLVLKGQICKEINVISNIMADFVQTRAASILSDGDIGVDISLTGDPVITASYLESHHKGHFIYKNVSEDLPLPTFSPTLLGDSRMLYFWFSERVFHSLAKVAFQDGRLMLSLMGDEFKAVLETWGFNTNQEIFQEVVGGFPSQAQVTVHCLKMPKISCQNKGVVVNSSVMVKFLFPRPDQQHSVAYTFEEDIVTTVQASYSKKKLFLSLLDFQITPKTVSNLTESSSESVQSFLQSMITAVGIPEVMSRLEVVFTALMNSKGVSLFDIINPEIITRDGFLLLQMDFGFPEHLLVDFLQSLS
# Test: RTA assay using recombinant CETP (2% RTA)
# Assay type: biochemical
# Settings: RTA assay in 2% human serum; read-out: IC50
# Outline: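 Compounds preincubated 1 h at 37 °C with assay cocktail (CETP buffer: 50 mM Tris pH 7.4, 100 mM NaCl, 1 mM EDTA; human HDL acceptor); transfer started with [3H]cholesteryl oleate- or [3H]triolein-labelled LDL, 60 min at 37 °C. LDL PEG-precipitated; supernatant counted by scintillation, blank-corrected; IC50 from 4-parameter sigmoidal fit of % inhibition vs DMSO control.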
row,Compound,IC50 [nM]
1,COc1ccc(CCC(=O)O)cc1-c1cnc(N2CCC2)nc1CN1C(=O)O[C@H](c2cc(C(F)(F)F)cc(C(F)(F)F)c2)[C@@H]1C [Example 171],60
2,COc1ccc(CCC(=O)O)cc1-c1cnc(N2CC(F)C2)nc1CN1C(=O)O[C@H](c2cc(C(F)(F)F)cc(C(F)(F)F)c2)[C@@H]1C [Example 172],35
3,C[C@H]1[C@@H](c2cc(C(F)(F)F)cc(C(F)(F)F)c2)OC(=O)N1Cc1nc(N2CCC2)ncc1-c1cc([C@H]2CC[C@H](C(=O)O)CC2)ccc1Cl [Example 173],21
4,COc1ccc(CCC(=O)O)cc1-c1cnc(N2CC(F)(F)C2)nc1CN1C(=O)O[C@H](c2cc(C(F)(F)F)cc(C(F)(F)F)c2)[C@@H]1C [Example 174],18
5,COc1ccc(C(C)(C)CC(=O)O)cc1-c1cnc(N2CCC2)nc1CN1C(=O)O[C@H](c2cc(C(F)(F)F)cc(C(F)(F)F)c2)[C@@H]1C [Example 175],72
6,COc1ccc(CCC(=O)O)cc1-c1cnc(N2CC(OC)C2)nc1CN1C(=O)O[C@H](c2cc(C(F)(F)F)cc(C(F)(F)F)c2)[C@@H]1C [Example 176],415
7,C[C@H]1[C@@H](c2cc(C(F)(F)F)cc(C(F)(F)F)c2)OC(=O)N1Cc1nc(N2CC(F)(F)C2)ncc1-c1cc([C@H]2CC[C@H](C(=O)O)CC2)ccc1Cl [Example 177],19
8,Cc1cc(C(=O)O)ccc1-c1ccc(C)c(-c2cnc(N3CC(F)(F)C3)nc2CN2C(=O)O[C@H](c3cc(C(F)(F)F)cc(C(F)(F)F)c3)[C@@H]2C)c1 [Example 178],6
9,COc1cc(F)c(-c2cnc(C(=O)O)cc2C)cc1-c1cnc(N2CC(F)(F)C2)nc1CN1C(=O)O[C@H](c2cc(C(F)(F)F)cc(C(F)(F)F)c2)[C@@H]1C [Example 183],14
10,"Cc1cc(C(=O)O)ccc1-c1cc(-c2cnc(N3CC(F)(F)C3)nc2CN2C(=O)O[C@H](c3cc(C(F)(F)F)cc(C(F)(F)F)c3)[C@@H]2C)ccc1F [Example 184, 5′-[4-({(4S,5R)-5-[3,5-bis(trifluoromethyl)phenyl]-4-methyl-2-oxo-1,3-oxazolidin-3-yl}methyl)-2-(3,3-difluoroazetidin-1-yl)pyrimidin-5-yl]-2′-fluoro-2-methylbiphenyl-4-carboxylic acid]",12
11,COc1ccc([C@H]2CC[C@H](C(=O)O)CC2)cc1-c1cnc(N2CC(F)C2)nc1CN1C(=O)O[C@H](c2cc(C(F)(F)F)cc(C(F)(F)F)c2)[C@@H]1C [Example 185],12
12,COc1ccc([C@H]2CC[C@H](C(=O)O)CC2)cc1-c1cnc(N2CC(OC)C2)nc1CN1C(=O)O[C@H](c2cc(C(F)(F)F)cc(C(F)(F)F)c2)[C@@H]1C [Example 186],137
13,COc1c(F)cc(-n2ncc(C(=O)O)c2C(F)(F)F)cc1-c1cnc(N2CC(F)(F)C2)nc1CN1C(=O)O[C@H](c2cc(C(F)(F)F)cc(C(F)(F)F)c2)[C@@H]1C [Example 187],4
14,COc1c(F)cc(-c2ncc(C(=O)O)cc2Cl)cc1-c1cnc(N2CC(F)(F)C2)nc1CN1C(=O)O[C@H](c2cc(C(F)(F)F)cc(C(F)(F)F)c2)[C@@H]1C [Example 188],18
15,COc1cc(F)c(-c2ncc(C(=O)O)cc2Cl)cc1-c1cnc(N2CC(F)(F)C2)nc1CN1C(=O)O[C@H](c2cc(C(F)(F)F)cc(C(F)(F)F)c2)[C@@H]1C [Example 189],5
16,COc1cc(F)c(-c2cc(C(F)(F)F)c(C(=O)O)cn2)cc1-c1cnc(N2CC(F)(F)C2)nc1CN1C(=O)O[C@H](c2cc(C(F)(F)F)cc(C(F)(F)F)c2)[C@@H]1C [Example 190],146
17,COc1ccc(-n2ncc(C(=O)O)c2C(F)(F)F)cc1-c1cnc(N2CC(F)(F)C2)nc1CN1C(=O)O[C@H](c2cc(C(F)(F)F)cc(C(F)(F)F)c2)[C@@H]1C [Example 191],9
18,COc1ccc(CCC(=O)N2CCC2)cc1-c1cnc(N2CCC2)nc1CN1C(=O)O[C@H](c2cc(C(F)(F)F)cc(C(F)(F)F)c2)[C@@H]1C [Example 193],105
19,COc1ccc([C@H]2CC[C@H](C(=O)OC)CC2)cc1-c1ccc(N2CCC2)nc1CN1C(=O)O[C@H](c2cccc(C(F)(F)F)c2)[C@@H]1C [Example 194],145
20,COC(=O)CC(C)(C)c1ccc(OC)c(-c2ccc(N3CCC3)nc2CN2C(=O)O[C@H](c3cccc(C(F)(F)F)c3)[C@@H]2C)c1 [Example 195],44
21,COc1ccc(CC(C)(C)C(=O)OC(C)(C)C)cc1-c1ccc(N2CCC2)nc1CN1C(=O)O[C@H](c2cccc(C(F)(F)F)c2)[C@@H]1C [Example 196],381
22,CCOC(=O)CCc1ccc(OC)c(-c2ccc(N3CCC3)nc2CN2C(=O)O[C@H](c3cccc(C(F)(F)F)c3)[C@@H]2C)c1 [Example 197],59
23,CCOC(=O)CCc1ccc(OC)c(-c2ccc(N3CCC3)nc2CN2C(=O)O[C@H](c3cc(C)cc(C)c3)[C@@H]2C)c1 [Example 198],50
24,CCOC(=O)CCc1ccc(OC)c(-c2ccc(N3CCC3)nc2CN2C(=O)O[C@H](c3cccc(C)c3)[C@@H]2C)c1 [Example 199],237

row,Compound,IC50 [nM]
1,COc1ccc([C@H]2CC[C@H](C(=O)OC)CC2)cc1-c1ccc(N2CCC2)nc1CN1C(=O)O[C@H](c2cc(C)cc(C)c2)[C@@H]1C [Example 200],55
2,COc1ccc([C@H]2CC[C@H](C(=O)OC)CC2)cc1-c1ccc(N2CCC2)nc1CN1C(=O)O[C@H](c2cccc(C)c2)[C@@H]1C [Example 201],166
3,COC(=O)CC(C)(C)c1ccc(OC)c(-c2ccc(N3CCC3)nc2CN2C(=O)O[C@H](c3cc(C)cc(C)c3)[C@@H]2C)c1 [Example 202],16
4,COC(=O)CC(C)(C)c1ccc(OC)c(-c2ccc(N3CCC3)nc2CN2C(=O)O[C@H](c3cccc(C)c3)[C@@H]2C)c1 [Example 203],106
5,CCOC(=O)C[C@@H]1CCc2cc(OC)c(-c3ccc(N4CCC4)nc3CN3C(=O)O[C@H](c4cccc(C(F)(F)F)c4)[C@@H]3C)cc21 [Example 204],114
6,CCOC(=O)C[C@@H]1CCc2cc(OC)c(-c3ccc(N4CCC4)nc3CN3C(=O)O[C@H](c4cc(C)cc(C)c4)[C@@H]3C)cc21 [Example 205],54
7,CCOC(=O)C[C@@H]1CCc2cc(OC)c(-c3ccc(N4CCC4)nc3CN3C(=O)O[C@H](c4cccc(C)c4)[C@@H]3C)cc21 [Example 206],203
8,CCOC(=O)[C@@H]1C[C@H]1c1ccc(OC)c(-c2ccc(N3CCC3)nc2CN2C(=O)O[C@H](c3cccc(C(F)(F)F)c3)[C@@H]2C)c1 [Example 207],44
9,CCOC(=O)[C@@H]1C[C@H]1c1ccc(OC)c(-c2ccc(N3CCC3)nc2CN2C(=O)O[C@H](c3cc(C)cc(C)c3)[C@@H]2C)c1 [Example 208],25
10,CCOC(=O)[C@@H]1C[C@H]1c1ccc(OC)c(-c2ccc(N3CCC3)nc2CN2C(=O)O[C@H](c3cccc(C)c3)[C@@H]2C)c1 [Example 209],99
11,COC(=O)c1ccc(-c2ccc(OC)c(-c3ccc(N4CCC4)nc3CN3C(=O)O[C@H](c4cccc(C(F)(F)F)c4)[C@@H]3C)c2)c(C)c1 [Example 210],22
12,COC(=O)c1ccc(-c2ccc(OC)c(-c3ccc(N4CCC4)nc3CN3C(=O)O[C@H](c4cc(C)cc(C)c4)[C@@H]3C)c2)c(C)c1 [Example 211],23
13,COC(=O)c1ccc(-c2ccc(OC)c(-c3ccc(N4CCC4)nc3CN3C(=O)O[C@H](c4cccc(C)c4)[C@@H]3C)c2)c(C)c1 [Example 212],75
14,COC(=O)CCc1ccc(OC2CC2)c(-c2ccc(N3CCC3)nc2CN2C(=O)O[C@H](c3cc(C(F)(F)F)cc(C(F)(F)F)c3)[C@@H]2C)c1 [Example 213],14
15,COC(=O)CCc1ccc(OC2CC2)c(-c2c(C)cc(N3CCC3)nc2CN2C(=O)O[C@H](c3cc(C(F)(F)F)cc(C(F)(F)F)c3)[C@@H]2C)c1 [Example 215],6
16,COc1ccc([C@H]2CC[C@H](C(=O)O)CC2)cc1-c1ccc(N2CCC2)nc1CN1C(=O)O[C@H](c2cccc(C(F)(F)F)c2)[C@@H]1C [Example 219],44
17,COc1ccc(C(C)(C)CC(=O)O)cc1-c1ccc(N2CCC2)nc1CN1C(=O)O[C@H](c2cccc(C(F)(F)F)c2)[C@@H]1C [Example 220],330
18,COc1ccc(CC(C)(C)C(=O)O)cc1-c1ccc(N2CCC2)nc1CN1C(=O)O[C@H](c2cccc(C(F)(F)F)c2)[C@@H]1C [Example 221],145
19,COc1ccc(CCC(=O)O)cc1-c1ccc(N2CCC2)nc1CN1C(=O)O[C@H](c2cccc(C)c2)[C@@H]1C [Example 223],289
20,COc1ccc([C@H]2CC[C@H](C(=O)O)CC2)cc1-c1ccc(N2CCC2)nc1CN1C(=O)O[C@H](c2cc(C)cc(C)c2)[C@@H]1C [Example 224],14
21,COc1ccc([C@H]2CC[C@H](C(=O)O)CC2)cc1-c1ccc(N2CCC2)nc1CN1C(=O)O[C@H](c2cccc(C)c2)[C@@H]1C [Example 225],66
22,COc1ccc(C(C)(C)CC(=O)O)cc1-c1ccc(N2CCC2)nc1CN1C(=O)O[C@H](c2cc(C)cc(C)c2)[C@@H]1C [Example 226],110
23,COc1ccc(CC(C)(C)C(=O)O)cc1-c1ccc(N2CCC2)nc1CN1C(=O)O[C@H](c2cc(C)cc(C)c2)[C@@H]1C [Example 227],65
